The source of these data is publication PMC5567253 (Scientific Reports, 2017).

In data set [1] the test system is MDA-MB-231 cells. Put plainly: cells. As to conditions: Homo sapiens, MDA-MB-231, 48 h, read-out: approximate IC50 of colony forming ability. Here is the method:
The culture media was then aspirated and fresh cell culture media was added to allow colony formation. The culture media was changed every third day. The colonies were fixed with ice-cold methanol for 5 min and stained with 1.0% crystal violet for 30 min. Colony numbers were counted and representative photos were taken.

Data set [2] deals with MDA-MB-231 cells. Description: Scratch-wound (wound healing) migration assay. In kind it is cell-based. The conditions noted are these: Homo sapiens, 20 h. Here is the method: Cell invasion and migration were measured using Transwell and wound healing assays, respectively. For Transwell assays, 2 × 10^4 cells were suspended in serum-free media and seeded in the top chamber of Matrigel-coated invasion inserts (Corning life science, Corning, NY). BHX was then added to the top chambers. DMEM containing 10% FBS was added to the lower chamber as a chemoattractant. After 24 h incubation, the non-invading cells on the upper surface of the membrane were wiped away, and the invading cells on the lower surface of the membrane were fixed using 95% ethanol and stained with 0.1% crystal violet. Images were captured at ×200 magnification using an inverted phase contrast microscope (BX61, Olympus, Japan). In parallel, cells were treated identically in 24-well plate. These cells were harvested, stained with 0.1% crystal violet, and counted. The number of cells that had invaded was normalized for effects on cell viability. For wound healing assays, cells were seeded at 2 × 10^5 cells/well in 24-well culture plates and allowed to reach confluence. […] Images of the scratches were recorded at ×40 magnification using a phase contrast microscope (EVOS, AMG, USA) at 0 and 20 h. The areas between leading edges were measured using Image J software, after which the rates of wound healing were calculated.

The test system of data set [3] is β-catenin mRNA in MDA-MB-231 cells. Description: PCR analysis of β-catenin mRNA. In kind it is cell-based, human. As to conditions: 24 h. Here is the method: (§1) Total RNA from MDA-MB-231 cells was isolated using TRIzol (Life Technologies, USA). RNA samples were quantified using a NanoDrop 3300 spectrophotometer (Thermo Scientific, NanoDrop Products, Wilmington, DE, USA). Synthesis of cDNA was performed using a RevertAid First Strand cDNA Synthesis kit per manufacturer’s protocols (Thermo Scientific, USA). The reaction mixtures were heated at 95 °C for 10 min, followed by 30 cycles at 94 °C for 30 s, 58 °C for 30 s, 72 °C for 20 s, and a final extension at 72 °C for 5 min. Subsequently, PCR products were electrophoresed in a 1.5% agarose gel and scanned using a gel/fluorescence image analysis system. GAPDH was selected as a loading control to standardize the amount of cDNA from each sample.

For data set [4], the system named is E-cadherin mRNA in MDA-MB-231 cells. Description: PCR analysis of E-cadherin mRNA. The conditions noted are these: 24 h. In kind it is cell-based, human. The protocol: as §1
The subject of data set [5] is E-cadherin protein in MDA-MB-231 cells. Description: Western blotting of E-cadherin. The data set is classed as cell-based, human. As to conditions: western blot. The protocol: (§2) Total cell lysates were obtained by lysing the cells in SDS lysis buffer containing a protease inhibitor (PMSF), and protein concentrations were determined using a BCA protein assay kit. The proteins were separated by SDS-PAGE and transferred to PVDF membranes. The membranes were incubated with primary antibodies against Snail, Vimentin, β-catenin, and E-cadherin (1:1000 dilution) overnight at 4 °C, rinsed with TBST, and incubated with IRDye-conjugated anti-rabbit or anti-mouse IgG secondary antibodies (1:1000, LI-COR Biosciences). A β-actin-specific monoclonal antibody (1:1000 dilution) was used as a loading control. Bands were visualized with an Odyssey LI-COR infrared imaging system (LI-COR, Lincoln, NE).
(In general: Immunoblotting shows a protein as a band on a membrane.)

Data set [6] concerns Snail protein in MDA-MB-231 cells. Description: Western blotting of Snail. In kind it is cell-based, human. As to conditions: western blot. The protocol:
as §2

Data set [7] relates to vimentin protein in MDA-MB-231 cells. Description: Western blotting of vimentin. The data set is classed as cell-based, human. The conditions noted are these: western blot. The protocol:
as §2

Data set [8] relates to MDA-MB-231 cells. Description: Morphology of MDA-MB-231 cells after BHX. The data set is classed as cell-based, human. As to conditions: 24 h incubation, more noticeable at high concentrations.
The test system of another data set is HT29. Also noted: method as in PMID 24098916. The conditions noted are these: cited from earlier work.

As usually defined, the IC50 is the midpoint of a concentration-inhibition curve. The term inhibition denotes the relative decrease from the control value, in per cent. Regarding `O=C(NCc1ccc(O)cc1)C1C(c2ccccc2)C(c2ccccc2)=NN1c1ccccc1` (stereo not drawn) [BHX], in the data set with MDA-MB-231 cells [1], the IC50 was around 20 µM. The inhibition at 5 µM in the data set on MDA-MB-231 cells [2] (5 μM) was determined as 34.4 ± 1.06%. For the same compound, the inhibition at 10 µM in the data set on MDA-MB-231 cells [2] (10 μM) is 71 ± 1.65%. Further, testing at 20 µM with MDA-MB-231 cells [2] (20 μM) gave an inhibition of 90.32 ± 0.68%. The “decrease of β-catenin mRNA levels” value in [3] (5 μM) was found to be 4.61%; in [3] (10 μM), 25.73%; in [3] (20 μM) it was 33.19%. Also, the “increase of E-cadherin mRNA levels compared to control” value in [4] (5 μM) was found to be 1.39 fold; in data set [4] (10 μM), 1.65 fold; in data set [4] (20 μM), 2.06 fold. Also, in data set [5], the E-cadherin protein level entry is “up-regulating the protein and mRNA levels of E-cadherin”. For the same compound, the Snail protein expression entry in data set [6] was “down-regulating Snail and vimentin expression in a dose-dependent manner”. Also, the vimentin protein expression entry in data set [7] is “down-regulating Snail and vimentin expression in a dose-dependent manner”. In addition, the morphological changes result with MDA-MB-231 cells [8] is “cell shrinkage and fragmentation”. The cytotoxic effects result in the data set on HT29 was “exhibits cytotoxic effects”.
